According to patent US20020137929A1, “1 - (3-heterocyclylphenyl) isothiourea, -isourea, -guanidine and -amidine herbicidal agents” (Intellectual Property Department, BASF Aktiengesellschaft, priority 1998, published 2002):

Key:
CASOB (Sicklepod) [1] = test: Postemergence herbicidal evaluation; format: in vivo, Cassia obtusifolia; settings: postemergence
Procedure, shortened: (§1)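 Visual 0–9 rating versus control (stand, vigor, malformation, size, chlorosis, overall appearance), taken four to five weeks post-spray. Two-week-old seedlings received roughly 0.0156–0.500 kg/ha active in acetone/water (50/50) with 0.5% TWEEN 20 via nozzle at 40 psi.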

CYPSE (Flatsedge) = test: Preemergence weed control under flooded paddy conditions; format: in vivo, Cyperus serotinus; settings: rated 3-4 weeks after treatment
Procedure, shortened: (§2)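 Greenhouse paddy assay. Acetone/water (50/50 v/v) solutions dosed into flood water, equivalent to about 0.0313 to 0.500 kg/ha active ingredient, over seeds planted 0.5 cm deep in silt loam. Score: 0-9 visual, based on stand, vigor, malformation, size and chlorosis, 3 to 4 weeks after treatment.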

[2] = tested on: SAGPY (Arrowhead (Pygmaea)); test: as above; format: in vivo, Sagittaria pygmaea; settings: rated 3-4 weeks after treatment
Procedure, shortened: as §2

[3] = tested on: CHEAL (Lambsquarters, Common); test: Postemergence herbicidal evaluation; format: in vivo, Chenopodium album; settings: postemergence
Procedure, shortened: as §1

ZEAMX (Corn, Field) = test: Preemergence herbicidal evaluation; format: in vivo, Zea mays; settings: rated 4-5 weeks after treatment, rating scale 0-9
Procedure, shortened: (§3)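 Greenhouse preemergence test: seed-soil mix sown on ~1 inch soil; aqueous acetone spray at equivalent of ~0.0156–0.500 kg/ha; greenhouse-held and watered; scored 0–9 visually at 4–5 weeks.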

CASOB (Sicklepod) [4] = test: Preemergence herbicidal evaluation; format: in vivo, Cassia obtusifolia; settings: rated 4-5 weeks after treatment, rating scale 0-9
Procedure, shortened: as §3

[5] = tested on: GLXMAW (Soybean, Williams); test: Postemergence herbicidal evaluation; format: in vivo, Glycine max, (L.) Merr. cv Williams; settings: postemergence
Procedure, shortened: as §1

SETVI (Foxtail, Green) = test: Postemergence herbicidal evaluation; format: in vivo, Setaria viridis; settings: postemergence
Procedure, shortened: as §1

GALAP (Galium) [6] = test: Preemergence herbicidal evaluation; format: in vivo, Galium aparine; settings: rated 4-5 weeks after treatment, rating scale 0-9
Procedure, shortened: as §3

AMBEL (Ragweed, Common) = test: Postemergence herbicidal evaluation; format: in vivo, Ambrosia artemisifolia; settings: postemergence
Procedure, shortened: as §1

GALAP (Galium) [7] = test: Postemergence herbicidal evaluation; format: in vivo, Galium aparine; settings: postemergence
Procedure, shortened: as §1

ECHCG (Barnyardgrass) = test: Postemergence herbicidal evaluation; format: in vivo, Echinochloa crus-galli; settings: postemergence
Procedure, shortened: as §1

CYPIR (Rice Flatsedge) = test: Preemergence weed control under flooded paddy conditions; format: in vivo, Cyperus iria; settings: rated 3-4 weeks after treatment
Procedure, shortened: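 Silt loam, seeds in top 0.5 cm; flood held 1.5-3 cm; test cpd as acetone/water 50/50 into flood water, ~0.0313-0.500 kg/ha a.i.; greenhouse 3-4 wk; visual 0-9 score vs control.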

ORYSAT (Rice, Tebonnet) = test: Postemergence herbicidal evaluation; format: in vivo, Oryza sativa, (L.) Tebonnet; settings: postemergence
Procedure, shortened: as §1

Structure (SMILES): CCOC(=O)CN1C(=O)C(Br)SC1=Nc1cc(-n2c(=O)cc(C(F)(F)F)n(C)c2=O)c(F)cc1Cl (stereo not drawn) [Compound 153, Ethyl 5-bromo-2-[{2-chloro-5-[3,6-dihydro-3-methyl-2,6-dioxo-4-(trifluoromethyl)-1(2H)-pyrimidinyl]-4-fluorophenyl}imino}-4-oxo-3-thiazolidineacetate]
- Herbicidal rating CASOB (CASOB (Sicklepod) [1]; rate 0.0156 kg/ha): 0.0
- Herbicidal rating CASOB (CASOB (Sicklepod) [1]; rate 0.0313 kg/ha): 0.0
- Herbicidal rating CASOB (CASOB (Sicklepod) [1]; rate 0.0625 kg/ha): 1.0
- herbicidal effect rating, CYPSE (CYPSE (Flatsedge); 0.0625 kg/ha): 0.0
- herbicidal effect rating, CYPSE (CYPSE (Flatsedge); 0.1250 kg/ha): 0.0
- herbicidal effect rating, CYPSE (CYPSE (Flatsedge); 0.2500 kg/ha): 0.0
- herbicidal effect rating, SAGPY ([2]; 0.0625 kg/ha): 0.0
- herbicidal effect rating, SAGPY ([2]; 0.1250 kg/ha): 0.0
- herbicidal effect rating, SAGPY ([2]; 0.2500 kg/ha): 0.0
- Herbicidal rating CHEAL ([3]; rate 0.0156 kg/ha): 0.0
- Herbicidal rating CHEAL ([3]; rate 0.0313 kg/ha): 1.0
- Herbicidal rating CHEAL ([3]; rate 0.0625 kg/ha): 1.0
- Preemergence herbicidal rating ZEAMX (ZEAMX (Corn, Field); rate 0.1250 kg/ha): 0.0
- Preemergence herbicidal rating ZEAMX (ZEAMX (Corn, Field); rate 0.2500 kg/ha): 0.0
- Preemergence herbicidal rating CASOB (CASOB (Sicklepod) [4]; rate 0.1250 kg/ha): 0.0
- Preemergence herbicidal rating CASOB (CASOB (Sicklepod) [4]; rate 0.2500 kg/ha): 0.0
- Herbicidal rating GLXMAW ([5]; rate 0.0156 kg/ha): 3.5
- Herbicidal rating GLXMAW ([5]; rate 0.0313 kg/ha): 4.0
- Herbicidal rating GLXMAW ([5]; rate 0.0625 kg/ha): 4.0
- Herbicidal rating SETVI (SETVI (Foxtail, Green); rate 0.0156 kg/ha): 0.0
- Herbicidal rating SETVI (SETVI (Foxtail, Green); rate 0.0313 kg/ha): 0.0
- Herbicidal rating SETVI (SETVI (Foxtail, Green); rate 0.0625 kg/ha): 0.0
- Preemergence herbicidal rating GALAP (GALAP (Galium) [6]; rate 0.1250 kg/ha): 0.0
- Preemergence herbicidal rating GALAP (GALAP (Galium) [6]; rate 0.2500 kg/ha): 1.0
- Herbicidal rating AMBEL (AMBEL (Ragweed, Common); rate 0.0156 kg/ha): 0.0
- Herbicidal rating AMBEL (AMBEL (Ragweed, Common); rate 0.0313 kg/ha): 1.0
- Herbicidal rating AMBEL (AMBEL (Ragweed, Common); rate 0.0625 kg/ha): 1.0
- Herbicidal rating GALAP (GALAP (Galium) [7]; rate 0.0156 kg/ha): 0.0
- Herbicidal rating GALAP (GALAP (Galium) [7]; rate 0.0313 kg/ha): 0.0
- Herbicidal rating GALAP (GALAP (Galium) [7]; rate 0.0625 kg/ha): 0.0
- Herbicidal rating ECHCG (ECHCG (Barnyardgrass); rate 0.0156 kg/ha): 0.0
- Herbicidal rating ECHCG (ECHCG (Barnyardgrass); rate 0.0313 kg/ha): 0.0
- Herbicidal rating ECHCG (ECHCG (Barnyardgrass); rate 0.0625 kg/ha): 1.0
- herbicidal effect rating, CYPIR (CYPIR (Rice Flatsedge); 0.0625 kg/ha): 0.0
- herbicidal effect rating, CYPIR (CYPIR (Rice Flatsedge); 0.1250 kg/ha): 0.0
- herbicidal effect rating, CYPIR (CYPIR (Rice Flatsedge); 0.2500 kg/ha): 3.0
- Herbicidal rating ORYSAT (ORYSAT (Rice, Tebonnet); rate 0.0156 kg/ha): 1.5
- Herbicidal rating ORYSAT (ORYSAT (Rice, Tebonnet); rate 0.0313 kg/ha): 1.5
- Herbicidal rating ORYSAT (ORYSAT (Rice, Tebonnet); rate 0.0625 kg/ha): 1.5

Structure (SMILES): C=C1SC(=Nc2cc(-n3c(=O)cc(C(F)(F)F)n(C)c3=O)c(F)cc2Cl)N(CC(=O)OCC)C1=O [Compound 154]
- Herbicidal rating CASOB (CASOB (Sicklepod) [1]; rate 0.0156 kg/ha): 0.0
- Herbicidal rating CASOB (CASOB (Sicklepod) [1]; rate 0.0313 kg/ha): 0.0
- Herbicidal rating CASOB (CASOB (Sicklepod) [1]; rate 0.0625 kg/ha): 1.0
- herbicidal effect rating, CYPSE (CYPSE (Flatsedge); 0.0313 kg/ha): 4.0
- herbicidal effect rating, CYPSE (CYPSE (Flatsedge); 0.0625 kg/ha): 6.0
- herbicidal effect rating, CYPSE (CYPSE (Flatsedge); 0.1250 kg/ha): 9.0
- herbicidal effect rating, CYPSE (CYPSE (Flatsedge); 0.2500 kg/ha): 9.0
- herbicidal effect rating, SAGPY ([2]; 0.0313 kg/ha): 2.0
- herbicidal effect rating, SAGPY ([2]; 0.0625 kg/ha): 4.0
- herbicidal effect rating, SAGPY ([2]; 0.1250 kg/ha): 5.0
- herbicidal effect rating, SAGPY ([2]; 0.2500 kg/ha): 6.0
- Herbicidal rating CHEAL ([3]; rate 0.0156 kg/ha): 9.0
- Herbicidal rating CHEAL ([3]; rate 0.0313 kg/ha): 9.0
- Herbicidal rating CHEAL ([3]; rate 0.0625 kg/ha): 9.0
- Preemergence herbicidal rating ZEAMX (ZEAMX (Corn, Field); rate 0.0156 kg/ha): 5.0
- Preemergence herbicidal rating ZEAMX (ZEAMX (Corn, Field); rate 0.0313 kg/ha): 7.0
- Preemergence herbicidal rating ZEAMX (ZEAMX (Corn, Field); rate 0.0625 kg/ha): 8.0
- Preemergence herbicidal rating ZEAMX (ZEAMX (Corn, Field); rate 0.1250 kg/ha): 9.0
- Preemergence herbicidal rating ZEAMX (ZEAMX (Corn, Field); rate 0.2500 kg/ha): 9.0
- Preemergence herbicidal rating CASOB (CASOB (Sicklepod) [4]; rate 0.0156 kg/ha): 0.0
- Preemergence herbicidal rating CASOB (CASOB (Sicklepod) [4]; rate 0.0313 kg/ha): 0.0
- Preemergence herbicidal rating CASOB (CASOB (Sicklepod) [4]; rate 0.0625 kg/ha): 9.0
- Preemergence herbicidal rating CASOB (CASOB (Sicklepod) [4]; rate 0.1250 kg/ha): 9.0
- Preemergence herbicidal rating CASOB (CASOB (Sicklepod) [4]; rate 0.2500 kg/ha): 9.0
- Herbicidal rating GLXMAW ([5]; rate 0.0156 kg/ha): 5.5
- Herbicidal rating GLXMAW ([5]; rate 0.0313 kg/ha): 6.0
- Herbicidal rating GLXMAW ([5]; rate 0.0625 kg/ha): 7.5
- Herbicidal rating SETVI (SETVI (Foxtail, Green); rate 0.0156 kg/ha): 0.0
- Herbicidal rating SETVI (SETVI (Foxtail, Green); rate 0.0313 kg/ha): 0.0
- Herbicidal rating SETVI (SETVI (Foxtail, Green); rate 0.0625 kg/ha): 5.0
- Preemergence herbicidal rating GALAP (GALAP (Galium) [6]; rate 0.0156 kg/ha): 0.0
- Preemergence herbicidal rating GALAP (GALAP (Galium) [6]; rate 0.0313 kg/ha): 0.0
- Preemergence herbicidal rating GALAP (GALAP (Galium) [6]; rate 0.0625 kg/ha): 4.0
- Preemergence herbicidal rating GALAP (GALAP (Galium) [6]; rate 0.1250 kg/ha): 9.0
- Preemergence herbicidal rating GALAP (GALAP (Galium) [6]; rate 0.2500 kg/ha): 9.0
- Herbicidal rating AMBEL (AMBEL (Ragweed, Common); rate 0.0156 kg/ha): 3.0
- Herbicidal rating AMBEL (AMBEL (Ragweed, Common); rate 0.0313 kg/ha): 9.0
- Herbicidal rating AMBEL (AMBEL (Ragweed, Common); rate 0.0625 kg/ha): 9.0
- Herbicidal rating GALAP (GALAP (Galium) [7]; rate 0.0156 kg/ha): 3.0
- Herbicidal rating GALAP (GALAP (Galium) [7]; rate 0.0313 kg/ha): 3.0
- Herbicidal rating GALAP (GALAP (Galium) [7]; rate 0.0625 kg/ha): 4.0
- Herbicidal rating ECHCG (ECHCG (Barnyardgrass); rate 0.0156 kg/ha): 0.0
- Herbicidal rating ECHCG (ECHCG (Barnyardgrass); rate 0.0313 kg/ha): 0.0
- Herbicidal rating ECHCG (ECHCG (Barnyardgrass); rate 0.0625 kg/ha): 0.0
- herbicidal effect rating, CYPIR (CYPIR (Rice Flatsedge); 0.0313 kg/ha): 2.0
- herbicidal effect rating, CYPIR (CYPIR (Rice Flatsedge); 0.0625 kg/ha): 3.0
- herbicidal effect rating, CYPIR (CYPIR (Rice Flatsedge); 0.1250 kg/ha): 4.0
- herbicidal effect rating, CYPIR (CYPIR (Rice Flatsedge); 0.2500 kg/ha): 6.0
- Herbicidal rating ORYSAT (ORYSAT (Rice, Tebonnet); rate 0.0156 kg/ha): 0.5
- Herbicidal rating ORYSAT (ORYSAT (Rice, Tebonnet); rate 0.0313 kg/ha): 1.5
- Herbicidal rating ORYSAT (ORYSAT (Rice, Tebonnet); rate 0.0625 kg/ha): 2.0
